Reference: patent publication US10865191B2, “Heterocyclic compounds useful as modulators of TNF alpha” (BRISTOL-MYERS SQUIBB COMPANY, priority 2015, dated 2020)
pIC50: −log10 of the molar value. Read-outs that look alike come from different tables or passages of the source.

Target: TNFα (Homo sapiens, UniProt P01375)
Experiment: TNF induced HEK-Blue assay (NF-kB-driven secreted alkaline phosphatase reporter)
Assay type: cell-based
Details: TNFα 0.5 ng/mL, HEK-Blue-CD40L cells, 18 h
Outline: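 HEK-Blue-CD40L cells (NF-kB-driven SEAP reporter), 20,000/well, added after 30 min pre-incubation of compound (0.004–25 μM final) with TNFα 0.5 ng/mL final at 37 °C; 18 h incubation. SEAP read with QUANTI-Blue at 620 nm; IC50 from 4-parameter logistic fit, normalized to unstimulated and stimulated DMSO controls.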

[1] = read-out: TNF induced HEK-Blue assay IC50 value
[2] = TNF induced HEK-Blue assay IC50 value

Chain of TNFα (P01375 77-233 limits assumed): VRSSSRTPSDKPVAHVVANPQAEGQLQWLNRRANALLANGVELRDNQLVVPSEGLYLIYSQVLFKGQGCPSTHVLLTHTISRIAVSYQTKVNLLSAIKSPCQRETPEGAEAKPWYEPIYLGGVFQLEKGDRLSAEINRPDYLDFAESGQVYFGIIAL

SMILES | pIC50 [1] | pIC50 [2]
CC(Nc1c(Cl)cnc2ccc(-c3ccc(C(C)(C)O)cc3)cc12)c1cn(C)cn1 (racemic) [Example 205, 2-(4-(3-chloro-4-((1-(1-methyl-1H-imidazol-4-yl)ethyl)amino)quinolin-6-yl)phenyl)propan-2-ol] | > 6.00 | –
CC(Nc1c(Cl)cnc2ccc(-c3ccc(C(C)(C)O)cc3)cc12)c1cocn1 (racemic) [Example 206, 2-(4-(3-chloro-4-((1-(oxazol-4-yl)ethyl)amino)quinolin-6-yl)phenyl)propan-2-ol] | 4.60 to 5.00 | –
CC(Nc1c(Cl)cnc2cc(F)c(-c3cnc(C(C)(C)O)nc3)nc12)c1ccccc1F (racemic) [Example 209, 2-(5-(7-chloro-3-fluoro-8-((1-(2-fluorophenyl)ethyl)amino)-1,5-naphthyridin-2-yl)pyrimidin-2-yl)propan-2-ol] | > 6.00 | –
CC(Nc1c(Cl)cnc2ccc(-c3ccc(C(C)(C)O)cc3)cc12)c1cncn1C (racemic) [Example 210, 2-(4-(3-chloro-4-((1-(1-methyl-1H-imidazol-5-yl)ethyl)amino)quinolin-6-yl)phenyl)propan-2-ol] | > 6.00 | –
CC(Nc1c(Cl)cnc2ccc(-c3ccc(C(C)(C)O)cc3)cc12)c1cncs1 (racemic) [Example 211, 2-(4-(3-chloro-4-((1-(thiazol-5-yl)ethyl)amino)quinolin-6-yl)phenyl)propan-2-ol] | > 6.00 | –
CC(C)(O)c1ncc(-c2nc3c(NC(c4ccccc4)C(F)F)c(Cl)cnc3cc2F)cn1 (racemic) [Example 212, 2-(5-(7-chloro-8-((2,2-difluoro-1-phenylethyl)amino)-3-fluoro-1,5-naphthyridin-2-yl)pyrimidin-2-yl)propan-2-ol] | > 6.00 | –
Cc1nc2cc(F)c(-c3cnc(C(C)(C)O)nc3)nc2c(NC(c2ccccc2)C(F)F)c1Cl (racemic) [Example 214, 2-(5-(7-chloro-8-((2,2-difluoro-1-phenylethyl)amino)-3-fluoro-6-methyl-1,5-naphthyridin-2-yl)pyrimidin-2-yl)propan-2-ol] | > 6.00 | –
C=Cc1cccc(C(Nc2c(Cl)cnc3cc(F)c(-c4cnc(C(C)(C)O)nc4)nc23)C(F)F)c1 (racemic) [Example 216, 2-(5-(7-chloro-8-((2,2-difluoro-1-(3-vinylphenyl)ethyl)amino)-3-fluoro-1,5-naphthyridin-2-yl)pyrimidin-2-yl) propan-2-ol] | > 6.00 | –
Cc1nc2ccc(-c3cnc(C(C)(C)O)nc3)cc2c(NC(C)c2ccccc2F)c1Cl (racemic) [Example 218, 2-(5-(3-chloro-4-((1-(2-fluorophenyl)ethyl)amino)-2-methylquinolin-6-yl)pyrimidin-2-yl)propan-2-ol] | > 6.00 | –
CC(C)(O)c1ncc(-c2ccc3ncc(Cl)c(NC(c4ccccc4F)C(C)(C)F)c3c2)cn1 (racemic) [Example 229, 2-(5-(3-chloro-4-((2-fluoro-1-(2-fluorophenyl)-2-methylpropyl)amino)quinolin-6-yl)pyrimidin-2-yl)propan-2-ol] | 4.60 to 5.00 | –
CC(C)(O)c1ncc(-c2ccc3ncc(Cl)c(NC(CCF)c4ccccc4F)c3c2)cn1 (racemic) [Example 230, 2-(5-(3-chloro-4-((3-fluoro-1-(2-fluorophenyl)propyl)amino)quinolin-6-yl)pyrimidin-2-yl) propan-2-ol] | > 6.00 | –
CC(Nc1c(Cl)cnc2ncc(-c3ccc(C(C)(C)O)cc3)cc12)c1ccccc1F (racemic) [Example 231, 2-(4-(6-chloro-5-((1-(2-fluorophenyl)ethyl)amino)-1,8-naphthyridin-3-yl)phenyl)propan-2-ol] | 4.60 to 5.00 | –
CC(C)(O)c1ccc(-c2ccc3ncc(Cl)c(NC(CCF)c4ccccc4F)c3c2)cc1 (racemic) [Example 232, 2-(4-(3-chloro-4-((3-fluoro-1-(2-fluorophenyl)propyl)amino)quinolin-6-yl)phenyl)propan-2-ol] | > 6.00 | –
CC(Nc1c(Cl)cnc2cc(F)c(-c3cnc(C(C)(C)O)nc3)nc12)c1cccc(N)c1 (racemic) [Example 239, 2-(5-(8-((1-(3-aminophenyl)ethyl)amino)-7-chloro-3-fluoro-1,5-naphthyridin-2-yl)pyrimidin-2-yl)propan-2-ol] | > 6.00 | –
CC(Nc1c(Cl)cnc2c(F)cc(-c3cnc(C(C)(C)O)nc3)cc12)c1ccccc1F (racemic) [Example 247, 2-(5-(3-chloro-8-fluoro-4-((1-(2-fluorophenyl)ethyl)amino)quinolin-6-yl)pyrimidin-2-yl)propan-2-ol] | – | > 6.00
CC(Nc1c(Cl)cnc2cc(F)c(-c3ccc(C4(O)CCC(C(=O)O)CC4)cc3)cc12)c1ccccc1F (racemic) [Example 251, 4-(4-(3-chloro-7-fluoro-4-((1-(2-fluorophenyl)ethyl)amino)quinolin-6-yl)phenyl)-4-hydroxycyclohexane-1-carboxylic acid] | > 6.00 | –

SMILES | pIC50 [1] | pIC50 [2]
CC(Nc1c(Cl)cnc2ccc(-c3cnc(C(C)(C)O)nc3)c(F)c12)c1ccccc1F (racemic) [Example 253, 2-(5-(3-chloro-5-fluoro-4-((1-(2-fluorophenyl)ethyl)amino)quinolin-6-yl)pyrimidin-2-yl)propan-2-ol] | > 6.00 | –
CC(Nc1c(Cl)cnc2cc(F)c(-c3ccc(C4(CO)CC4)cc3)cc12)c1ccccc1F (racemic) [Example 264, (1-(4-(3-chloro-7-fluoro-4-((1-(2-fluorophenyl)ethyl)amino)quinolin-6-yl)phenyl)cyclopropyl)methanol] | > 6.00 | –
CC(Nc1c(Cl)cnc2cc(F)c(-c3cnc(N4CCC(CC(=O)O)CC4)nc3)cc12)c1ccccc1F (racemic) [Example 266, 2-(1-(5-(3-chloro-7-fluoro-4-((1-(2-fluorophenyl)ethyl)amino)quinolin-6-yl)pyrimidin-2-yl)piperidin-4-yl)acetic acid] | > 6.00 | –
CC(Nc1c(Cl)cnc2cc(F)c(-c3cc(F)c(C(C)(C)O)c(F)c3)cc12)c1ccccc1F (racemic) [Example 267, 2-(4-(3-chloro-7-fluoro-4-((1-(2-fluorophenyl)ethyl)amino)quinolin-6-yl)-2,6-difluorophenyl)propan-2-ol] | > 6.00 | –
CC(Nc1ccnc2cc(F)c(-c3cnc(C4(O)CCOCC4)nc3)cc12)c1ccccc1F (racemic) [Example 287, 4-(5-(7-fluoro-4-((1-(2-fluorophenyl)ethyl)amino)quinolin-6-yl)pyrimidin-2-yl)tetrahydro-2H-pyran-4-ol] | 4.60 to 5.00 | –
CC(Nc1c(Cl)cnc2cc(F)c(-c3cnc(C(C)(C)O)cn3)cc12)c1ccccc1F (racemic) [Example 294, 2-(5-(3-chloro-7-fluoro-4-((1-(2-fluorophenyl)ethyl)amino)quinolin-6-yl)pyrazin-2-yl)propan-2-ol] | > 6.00 | –
CC(Nc1c(Cl)cnc2ccc(-c3cnc(C(C)(C)O)nc3)c(Cl)c12)c1ccccc1F (racemic) [Example 296, 2-(5-(3,5-dichloro-4-((1-(2-fluorophenyl)ethyl)amino)quinolin-6-yl)pyrimidin-2-yl)propan-2-ol] | – | > 6.00
Cc1nc2c(F)cc(-c3cnc(C(C)(C)O)nc3)cc2c(NC(C)c2ccccc2F)c1Cl (racemic) [Example 298, 2-(5-(3-chloro-8-fluoro-4-((1-(2-fluorophenyl)ethyl)amino)-2-methylquinolin-6-yl)pyrimidin-2-yl)propan-2-ol] | > 6.00 | –
CC(Nc1c(Cl)cnc2cc(F)c(-c3cnc(C(O)CO)nc3)cc12)c1ccccc1F (racemic) [Example 300, 1-(5-(3-chloro-7-fluoro-4-((1-(2-fluorophenyl)ethyl)amino)quinolin-6-yl)pyrimidin-2-yl)ethane-1,2-diol] | > 6.00 | –
Cc1nc2c(F)cc(-c3cnc(C(C)(C)O)nc3)cc2c(NC(C)c2ccc(F)cc2)c1Cl (racemic) [Example 301, 2-(5-(3-chloro-8-fluoro-4-((1-(4-fluorophenyl)ethyl)amino)-2-methylquinolin-6-yl)pyrimidin-2-yl)propan-2-ol] | 4.60 to 5.00 | –
Cc1nc2ccc(-c3ccc(C(C)(C)O)cc3)cc2c(NC(C)c2ccccc2F)c1Cl (racemic) [Example 308, 2-(4-(3-chloro-4-((1-(2-fluorophenyl)ethyl)amino)-2-methylquinolin-6-yl)phenyl) propan-2-ol] | > 6.00 | –
Cc1nc2ccc(-c3cnc(N4CCN(CC(=O)O)CC4)nc3)cc2c(NC(C)c2ccccc2F)c1Cl (racemic) [Example 309, 2-(4-(5-(3-chloro-4-((1-(2-fluorophenyl)ethyl)amino)-2-methylquinolin-6-yl)pyrimidin-2-yl)piperazin-1-yl)acetic acid] | > 6.00 | –
Cc1nc2ccc(-c3cnc(N4CCS(=O)(=O)CC4)nc3)cc2c(NC(C)c2ccccc2F)c1Cl (racemic) [Example 310, 4-(5-(3-chloro-4-((1-(2-fluorophenyl)ethyl)amino)-2-methylquinolin-6-yl)pyrimidin-2-yl)thiomorpholine 1,1-dioxide] | > 6.00 | –
Cc1nc2ccc(-c3cnc(N4CCOCC4)nc3)cc2c(NC(C)c2ccccc2F)c1Cl (racemic) [Example 311, 3-chloro-N-(1-(2-fluorophenyl)ethyl)-2-methyl-6-(2-morpholinopyrimidin-5-yl)quinolin-4-amine] | > 6.00 | –
Cc1nc2ccc(-c3cnc(C(C)(C)O)nc3)cc2c(NC(C)c2cc(F)ccc2F)c1Cl (racemic) [Example 317, 2-(5-(3-chloro-4-((1-(2,5-difluorophenyl)ethyl)amino)-2-methylquinolin-6-yl)pyrimidin-2-yl)propan-2-ol] | > 6.00 | –
CCCC(C)C(=O)c1c(Cl)c(C)nc2ccc(-c3cnc(C(C)(C)O)nc3)cc12 (racemic) [Example 356, ± 1-(3-Chloro-6-(2-(2-hydroxypropan-2-yl)pyrimidin-5-yl)-2-methylquinolin-4-yl)-2-methylpentan-1-one] | 4.60 to 5.00 | –
